Measured values reported in article PMC10428001 (Cancer research, 2022).
Like-named read-outs stand apart in the source and are kept apart here.

Key:
Ba/F3 cells HER2 S310F = experiment: Ba/F3 cell viability; format: cell-based; details: read-out: IC50 (average ± SD)
[1] = system: Ba/F3 cells HER2 G776delinsVC; experiment: Ba/F3 cell viability; format: cell-based; details: read-out: IC50 (average ± SD)
Ba/F3 cells HER2 V777L = experiment: Ba/F3 cell viability; format: cell-based; details: read-out: IC50 (average ± SD)
[2] = system: Ba/F3 cells HER2 A775_G776insYVMA; experiment: Ba/F3 cell viability; format: cell-based; details: read-out: IC50 (average ± SD)
[3] = system: Ba/F3 cells HER2 P780_Y781insGSP; experiment: Ba/F3 cell viability; format: cell-based; details: read-out: IC50 (average ± SD)
[4] = system: Ba/F3 cells WT EGFR (+ rhEGF); experiment: Ba/F3 cell viability; format: cell-based; details: read-out: IC50 (average ± SD)
Ba/F3 cells HER2 V862I = experiment: Ba/F3 cell viability; format: cell-based; details: read-out: IC50 (average ± SD)
[5] = system: WT EGFR vs all HER2 mutants Ba/F3 cells; experiment: Selectivity index from Ba/F3 IC50 ratios; format: cell-based; details: average over HER2 mutants
[6] = system: Ba/F3 cells HER2 M774delinsWLV; experiment: Ba/F3 cell viability; format: cell-based; details: read-out: IC50 (average ± SD)
[7] = system: Ba/F3 cells HER2 amplification; experiment: Ba/F3 cell viability; format: cell-based; details: read-out: IC50 (average ± SD)
Ba/F3 cells HER2 L755S = experiment: Ba/F3 cell viability; format: cell-based; details: read-out: IC50 (average ± SD)
H1781 = experiment: Cancer cell viability; format: cell-based, human; details: Homo sapiens, NCI-H1781, 72 h, read-out: IC50 (average ± SD)
H1819 = experiment: Cancer cell viability; format: cell-based; details: Homo sapiens, NCI-H1819, 72 h, read-out: IC50 (average ± SD)
SKBR3 = experiment: Cancer cell viability; format: cell-based, human; details: Homo sapiens, SK-BR-3, 72 h, read-out: IC50 (average ± SD)
MCF7 = experiment: Cancer cell viability; format: cell-based, human; details: Homo sapiens, MCF7, 72 h, read-out: IC50 (average ± SD)
DFCI 429 = experiment: Patient-derived cancer cell viability; format: cell-based, human; details: Homo sapiens, 72 h, read-out: IC50 (average ± SD)
[8] = system: Ba/F3 cells HER2 755_757LREdelinsRP; experiment: Ba/F3 cell viability; format: cell-based; details: Mus musculus, BaF3, 72 h, read-out: IC50 (average ± SD)
NCI-N87 = experiment: Cancer cell viability; format: cell-based, human; details: Homo sapiens, NCI-N87, 72 h, read-out: IC50 (average ± SD)
Calu-3 = experiment: Cancer cell viability; format: cell-based; details: Homo sapiens, Calu-3, 72 h, read-out: IC50 (average ± SD)
A-431 = experiment: Cancer cell viability; format: cell-based, human; details: read-out: IC50 (average ± SD); A-431, epidermoid, EGFR amp, 72 h
BT-474 = experiment: Cancer cell viability; format: cell-based, human; details: Homo sapiens, BT-474, 72 h, read-out: IC50 (average ± SD)
HER2 mutant lung cancer = details: cited from earlier work
Calu-3 tumors = experiment: Calu-3 xenograft efficacy; format: in vivo; details: Calu-3 in NCr nude mice, oral, 39 days; JBJ-08-178-01 at 50 mg/kg BID

| Compound | IC50 (H1781) | IC50 (H1819) | IC50 (SKBR3) | IC50 (MCF7) | IC50 (Ba/F3 cells HER2 S310F; Mus musculus, BaF3, 72 h) | IC50 ([1]; Mus musculus, BaF3, 72 h) | IC50 (DFCI 429) | IC50 [8] | IC50 (NCI-N87) | IC50 (Ba/F3 cells HER2 V777L; Mus musculus, BaF3, 72 h) | IC50 (Calu-3) | IC50 ([2]; Mus musculus, BaF3, 72 h) | IC50 ([3]; Mus musculus, BaF3, 72 h) | IC50 (Ba/F3 cells HER2 V862I; Mus musculus, BaF3, 72 h) | IC50 ([6]; Mus musculus, BaF3, 72 h) | IC50 ([7]; Mus musculus, BaF3, 72 h) | IC50 (Ba/F3 cells HER2 L755S; Mus musculus, BaF3, 72 h) | IC50 (BT-474) | IC50 ([4]; Mus musculus, BaF3, 72 h) | also measured |
| --- | --- | --- | --- | --- | --- | --- | --- | --- | --- | --- | --- | --- | --- | --- | --- | --- | --- | --- | --- | --- |
| C=CC(=O)N1CCC[C@@H](n2nc(C(=O)Nc3ccc(CC(=O)N(C)C)c(C)c3C)c3c(N)ncnc32)C1 [TAS0728] |  |  |  |  |  |  |  |  |  |  |  |  |  |  |  |  |  |  |  | IC50 (Ba/F3 cells HER2 S310F; Ba/F3 HER2 S310F, 3 days): 238 ± 95 nM; IC50 ([1]; Ba/F3 HER2 G776delinsVC, 3 days): 626 ± 130 nM; IC50 (Ba/F3 cells HER2 V777L; Ba/F3 HER2 V777L, 3 days): 19.2 ± 12.2 nM; IC50 ([2]; Ba/F3 HER2 A775_G776insYVMA, 3 days): 256 ± 175 nM; IC50 ([3]; Ba/F3 HER2 P780_Y781insGSP, 3 days): 80.1 ± 27 nM; IC50 ([4]; Ba/F3 WT EGFR (+ rhEGF 10 ng/mL), 3 days): 399 ± 77.3 nM; IC50 (Ba/F3 cells HER2 V862I; Ba/F3 HER2 V862I, 3 days): 1320 ± 506 nM; Selectivity index (IC50 ratio = WT EGFR ÷ all HER2 mutants) [5]: 0.48; IC50 ([6]; Ba/F3 HER2 M774delinsWLV, 3 days): 894 ± 509 nM; IC50 ([7]; Ba/F3 HER2 amplification, 3 days): 288 ± 20.6 nM; IC50 (Ba/F3 cells HER2 L755S; Ba/F3 HER2 L755S, 3 days): 3760 ± 3080 nM |
| CN(C)C/C=C/C(=O)Nc1cc2c(Nc3ccc(F)c(Cl)c3)ncnc2cc1O[C@H]1CCOC1 [afatinib] | 169 ± 84.6 nM | 29.5 ± 19.5 nM | 117 ± 105 nM | 1970 nM | 14.1 ± 20.6 nM | 6.89 ± 6.66 nM | 163 ± 153 nM | 1.79 ± 1.39 nM | 1.7 ± 0.2 nM | 3.13 ± 0.21 nM | 162 ± 110 nM | 2.96 ± 1.29 nM | 5.17 ± 2.32 nM | 22.1 ± 10.9 nM | 8.75 ± 3.74 nM | 2.75 ± 2.89 nM | 83.2 ± 35.7 nM | 175 ± 136 nM |  | IC50 (A-431): 73.9 ± 60.9 nM |
| COc1cc2ncnc(Nc3ccc(F)c(Cl)c3)c2cc1NC(=O)/C=C/CN1CCCCC1 [dacomitinib] |  |  |  |  |  |  |  |  |  |  |  |  |  |  |  |  |  |  |  | overall response rate (HER2 mutant lung cancer; phase II trial, patients with lung cancer harboring HER2 exon 20 mutations ref 34): 12% |
| CS(=O)(=O)CCNCc1ccc(-c2ccc3ncnc(Nc4ccc(OCc5cccc(F)c5)c(Cl)c4)c3c2)o1 [lapatinib] | 2420 nM | 341 ± 171 nM | 5390 nM | 6790 nM | 530 ± 407 nM | 65.3 ± 49.7 nM |  | 130 ± 18 nM | 16.3 ± 6.6 nM | 13.1 ± 5.79 nM | 248 ± 220 nM | 202 ± 70.2 nM | 210 ± 56 nM | 336 ± 74.5 nM | 621 ± 333 nM | 177 ± 88.6 nM | 845 ± 381 nM | 3780 nM | 302 ± 64.8 nM |  |
| CCOc1cc2ncc(C#N)c(Nc3ccc(OCc4ccccn4)c(Cl)c3)c2cc1NC(=O)/C=C/CN(C)C [neratinib] | 296 ± 331 nM | 50.8 ± 14.1 nM | 68.4 ± 65.5 nM | 1280 nM | 49.1 ± 64 nM | 7.4 ± 4.64 nM | 51.9 ± 45.8 nM | 5.41 ± 4.54 nM | 1.1 ± 0.1 nM | 2.66 ± 0.48 nM | 57.9 ± 39.6 nM | 5.78 ± 2.09 nM | 4.96 ± 2.31 nM | 8.64 ± 3.81 nM | 16 ± 11.7 nM | 5.64 ± 3.72 nM | 112 ± 69.7 nM | 48 ± 10 nM | 13.5 ± 6.52 nM | patients with objective response (HER2 mutant lung cancer; patients with HER2 mutant NSCLC, clinical trial ref 35): one out of 26 |
| C=CC(=O)N1CCC(Oc2cc3c(Nc4ccc(Cl)c(Cl)c4F)ncnc3cc2OC)CC1 [poziotinib] | 197 ± 147 nM | 75.5 ± 28.8 nM | 929 nM | 5940 nM | 73.5 ± 41.1 nM | 1.17 ± 0.86 nM | 744 ± 747 nM | 0.95 ± 0.94 nM | 0.7 nM | 2.43 ± 0.77 nM | 4.7 ± 2 nM | 1.05 ± 0.67 nM | 1.28 ± 1.12 nM | 29.3 ± 43 nM | 3.45 ± 2.45 nM | 1.08 ± 1.04 nM | 523 ± 440 nM | 368 ± 414 nM | 1.41 ± 0.56 nM | IC50 (A-431): 59.9 ± 46.1 nM |
| Cc1cc(Nc2ncnc3ccc(NC4=NC(C)(C)CO4)cc23)ccc1Oc1ccn2ncnc2c1 [tucatinib] | 3910 nM | 521 ± 551 nM | 840 ± 918 nM | 11300 nM | 371 ± 168 nM | 97.8 ± 43.3 nM | 2790 nM | 102 ± 23.6 nM | 16.2 ± 2.4 nM | 7.2 ± 0.57 nM | 1900 nM | 269 ± 88.1 nM | 131 ± 37.3 nM | 1940 ± 1110 nM | 683 ± 288 nM | 126 ± 81.8 nM | 2090 ± 981 nM | 1730 nM | 5180 ± 2520 nM | Selectivity index (IC50 ratio = WT EGFR ÷ all HER2 mutants) [5]: 8.91; tumor growth (Calu-3 tumors): less efficacious than other covalent inhibitors |
